Data published in patent publication US11524966B1 (Valo Early Discovery, Inc., priority 2017, dated 2022).

Key:
Assay type in all cases: biochemical
[1] = target: T1, USP28 (USP28-5(1-1077)-TEV-6*His; LifeSensors) (Homo sapiens, UniProt Q96RU2); assay: Ubiquitin-Rhodamine 110 Assay for USP28 Activity, Example A-1(b); conditions: Example A-1(b)
T1 construct: construct USP28 (USP28-5(1-1077)-TEV-6*His; LifeSensors); TEV cleavage site (C); 6xHis (C); purchased LifeSensors
T1 sequence (Q96RU2 1-1077): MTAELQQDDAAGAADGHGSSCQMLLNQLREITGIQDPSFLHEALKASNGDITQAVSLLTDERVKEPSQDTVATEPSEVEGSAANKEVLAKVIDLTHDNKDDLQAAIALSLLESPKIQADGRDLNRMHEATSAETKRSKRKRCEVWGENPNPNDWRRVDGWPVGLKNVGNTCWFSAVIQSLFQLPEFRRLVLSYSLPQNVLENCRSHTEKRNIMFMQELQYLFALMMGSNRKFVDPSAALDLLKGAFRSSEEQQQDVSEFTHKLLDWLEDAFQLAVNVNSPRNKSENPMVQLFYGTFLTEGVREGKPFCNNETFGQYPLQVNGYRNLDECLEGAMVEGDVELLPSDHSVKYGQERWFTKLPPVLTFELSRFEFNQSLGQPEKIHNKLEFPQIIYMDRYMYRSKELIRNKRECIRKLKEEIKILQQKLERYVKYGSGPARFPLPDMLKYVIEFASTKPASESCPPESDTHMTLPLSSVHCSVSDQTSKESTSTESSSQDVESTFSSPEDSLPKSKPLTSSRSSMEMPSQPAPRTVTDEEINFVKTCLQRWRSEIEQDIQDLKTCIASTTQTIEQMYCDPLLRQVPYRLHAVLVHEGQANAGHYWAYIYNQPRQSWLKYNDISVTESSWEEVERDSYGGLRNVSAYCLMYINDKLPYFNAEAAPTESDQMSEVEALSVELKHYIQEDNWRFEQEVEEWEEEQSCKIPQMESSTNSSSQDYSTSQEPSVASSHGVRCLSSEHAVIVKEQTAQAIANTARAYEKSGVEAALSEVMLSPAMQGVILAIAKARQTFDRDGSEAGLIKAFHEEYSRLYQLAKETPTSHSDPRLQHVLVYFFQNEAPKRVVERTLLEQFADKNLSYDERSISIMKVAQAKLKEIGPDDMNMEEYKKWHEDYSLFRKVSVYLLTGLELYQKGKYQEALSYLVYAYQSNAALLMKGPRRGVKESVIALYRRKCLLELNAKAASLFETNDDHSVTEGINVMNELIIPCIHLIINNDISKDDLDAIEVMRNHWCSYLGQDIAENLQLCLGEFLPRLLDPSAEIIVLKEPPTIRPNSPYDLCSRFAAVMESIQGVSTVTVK
Method: Example A-1(b): Biochemical Assay: Ubiquitin-Rhodamine 110 Assay for USP28 Activity
Each assay was performed in a final volume of 20 μL in assay buffer containing 20 mM Tris-HCl (pH 8.0, (1M Tris-HCl, pH 8.0 solution; Corning 46-031-CM)), 2 mM CaCl2) (1M Calcium Chloride solution; Sigma #21114) 2 mM BME (2-Mercaptoethanol; Sigma 63689-25ML-F), 0.01% Prionex ([…] filtered, Sigma #G-0411), and 0.01% Triton X-100. Stock compound solutions were stored at −20° C. as 10 mM in DMSO. Up to 1 month prior to the assay, 2 mM test compounds were pre-dispensed into assay plates (Black, low volume; Corning #3820) and frozen at −20° C. Prestamped assay plates were allowed to come to room temperature on the day of the assay. For the screen, 100 nL of 2 mM was pre-dispensed for a final screening concentration of 10 μM (DMSO(fc)=0.5%). […] Plates were incubated stacked for 90 minutes at room temperature before fluorescence was read on the Envision (Excitation at 485 nm and Emission at 535 nm; Perkin Elmer) or on the PheraSTAR (Excitation at 485 nm and Emission at 535 nm; BMG Labtech).
For follow-up studies, each assay was performed in a final volume of 15 μL in assay buffer containing 20 mM Tris-HCl (pH 8.0, (1M Tris-HCl, pH 8.0 solution; Corning 46-031-CM)), 3 mM BME (2-Mercaptoethanol; Sigma 63689-25ML-F), 0.03% BGG (0.22 μM filtered, Sigma, G7516-25G), and 0.01% Triton X-100 (Sigma, T9284-10L). Nanoliter quantities of either an 8-point or 10-point, 3-fold serial dilution in DMSO was pre-dispensed into assay plates (Perkin Elmer, ProxiPlate-384 F Plus, #) for a final test concentration of either 25 μM to 11 nM or 25 μM to 1.3 nM, respectively. Enzyme USP28, construct USP28 (USP28-5(1-1077)-TEV-6*His; LifeSensors) concentration and incubation times were optimized for the maximal signal-to-background while maintaining initial velocity conditions at a fixed substrate concentration. The final concentration of the enzyme in the assay was 75 pM. Final substrate (Ub-Rh110; Ubiquitin-Rhodamine 110, R&D Systems #U-555) concentration was 25 nM with [Ub-Rh110]<<Km. 5 μL of 2× enzyme was added to assay plates (pre-stamped with compound) preincubated with USP28 for 30 minutes and then 5 μL of 2×Ub-Rh110 was added to assay plates. Plates were incubated stacked for 20 minutes at room temperature before 5 μL of stop solution was added (final concentration of 10 mM citric acid (Sigma, 251275-500G)). Fluorescence was read on the Envision (Excitation at 485 nm and Emission at 535 nm; Perkin Elmer) or on the PheraSTAR (Excitation at 485 nm and Emission at 535 nm; BMG Labtech).
For assay formats Example A-1(a), A-1(b), and A-2, data were reported as percent inhibition compared with control wells based on the following equation: % inh=1−((FLU−AveLow)/(AveHigh−AveLow)) where FLU=measured Fluorescence, AveLow=average Fluorescence of no enzyme control (n=16), and AveHigh=average Fluorescence of DMSO control (n=16). IC50 values were determined by curve fitting of the standard 4 parameter logistic fitting algorithm included in the Activity Base software package: IDBS XE Designer Model 205. Data is fitted using the Levenburg Marquardt algorithm.

[2] = target: T2, USP25 (USP25-His6, Boston Biochem E-546) (Homo sapiens, UniProt Q9UHP3); assay: Ubiquitin-Rhodamine 110 Assay for USP25 Activity, Example A-2; conditions: Ubiquitin-Rhodamine 110 assay, Example A-2; read-out: USP25 A-2 IC50 range
T2 construct: His6; purchased Boston Biochem E-546
T2 sequence (Q9UHP3 1-1055): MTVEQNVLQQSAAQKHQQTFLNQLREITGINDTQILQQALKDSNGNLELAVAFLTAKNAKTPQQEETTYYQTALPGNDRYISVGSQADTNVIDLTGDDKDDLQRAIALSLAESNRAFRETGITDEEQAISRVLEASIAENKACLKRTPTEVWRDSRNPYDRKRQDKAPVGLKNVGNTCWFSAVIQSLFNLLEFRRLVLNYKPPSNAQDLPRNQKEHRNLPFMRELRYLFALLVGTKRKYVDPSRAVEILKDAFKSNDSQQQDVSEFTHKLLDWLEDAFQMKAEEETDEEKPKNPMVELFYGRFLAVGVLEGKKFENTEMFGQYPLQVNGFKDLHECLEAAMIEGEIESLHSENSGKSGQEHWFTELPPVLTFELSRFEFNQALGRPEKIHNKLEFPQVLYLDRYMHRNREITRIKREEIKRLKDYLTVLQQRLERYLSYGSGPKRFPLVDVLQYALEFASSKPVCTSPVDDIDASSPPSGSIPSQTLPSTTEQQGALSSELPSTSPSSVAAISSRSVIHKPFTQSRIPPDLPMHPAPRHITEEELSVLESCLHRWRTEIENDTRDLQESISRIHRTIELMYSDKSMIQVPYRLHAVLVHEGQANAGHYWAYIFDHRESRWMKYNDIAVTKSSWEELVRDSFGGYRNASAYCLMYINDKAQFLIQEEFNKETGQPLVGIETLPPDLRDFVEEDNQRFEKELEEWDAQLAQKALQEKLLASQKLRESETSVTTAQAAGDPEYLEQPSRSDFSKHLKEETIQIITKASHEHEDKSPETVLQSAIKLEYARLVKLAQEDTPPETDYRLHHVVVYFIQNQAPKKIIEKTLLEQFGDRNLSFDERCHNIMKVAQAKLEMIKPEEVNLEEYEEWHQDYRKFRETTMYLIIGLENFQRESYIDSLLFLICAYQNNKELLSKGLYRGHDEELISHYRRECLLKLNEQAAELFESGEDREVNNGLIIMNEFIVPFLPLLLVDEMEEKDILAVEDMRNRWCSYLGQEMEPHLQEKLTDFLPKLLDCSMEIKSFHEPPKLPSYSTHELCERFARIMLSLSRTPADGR
Method: The assay was performed in a final volume of 9 μL in assay buffer containing 20 mM Tris-HCl (pH 8.0, (1M Tris-HCl, pH 8.0 solution; Corning 46-031-CM)), 3 mM BME (2-Mercaptoethanol; Sigma 63689-25ML-F), 0.03% BGG (0.22 μM filtered, Sigma, G7516-25G), and 0.01% Triton X-100 (Sigma, T9284-10L). Nanoliter quantities of 10-point, 3-fold serial dilution in DMSO was pre-dispensed into 1536 assay plates (Corning, #3724BC) for a final test concentration of 25 μM to 1.3 nM, top to lowest dose, respectively. Enzyme USP25, construct USP25-His6, (Boston Biochem E-546). Concentration and incubation times were optimized for the maximal signal-to-background while maintaining initial velocity conditions at a fixed substrate concentration. The final concentration of the enzyme in the assay was 75 pM. Final substrate (Ub-Rh110; Ubiquitin-Rhodamine 110, R&D Systems #U-555) concentration was 25 nM with [Ub-Rh110]<<Km. 3 μL of 2× enzyme was added to assay plates (pre-stamped with compound) preincubated with […] for 30 minutes and then 3 μL of 2×Ub-Rh110 was added to assay plates. Plates were incubated for 45 minutes at room temperature before addition of 3 μL of stop solution (final concentration of 10 mM citric acid (Sigma, 251275-500G)). Fluorescence was read on the Envision (Excitation at 485 nm and Emission at 535 nm; Perkin Elmer) or on the PheraSTAR (Excitation at 485 nm and Emission at 535 nm; BMG Labtech).
IC50 values were determined by curve fitting of the standard 4 parameter logistic fitting algorithm included in the Activity Base software package: IDBS XE Designer Model 205. Data is fitted using the Levenburg Marquardt algorithm.

[3] = target: T3, USP28 (His-tagged USP28-FL-mammalian) (Homo sapiens, UniProt Q96RU2); assay: Ubiquitin-Rhodamine 110 Assay for USP28 Activity, Example A-1(a); conditions: Ubiquitin-Rhodamine 110 assay, Example A-1(a); read-out: USP28 A-1(a) IC50 range
T3 construct: Expression of USP28 (1-1077)-TEV-6*His (pTT5 vector); made in house; host or cells: Expi293f cells (pTT5 vector)
T3 sequence (Q96RU2 1-1077): T1 sequence (Q96RU2 1-1077)
Method in brief: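 Full-length His-tagged human USP28 (1-1077, Expi293f-expressed), […], with 25 nM Ub-Rh110 (<<Km) in pH 8.0 Tris buffer with BME, BGG, Triton X-100. 10-point dilutions (25 μM-1.3 nM), 45 min at room temperature, citric acid stop, fluorescence 485/535 nm; IC50 by 4-parameter fit.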

SMILES | IC50 [3] [nM] | further results
Cc1ccc2c(N)c(C(=O)N[C@H]3COc4cc(N5CC6CCC(C5)N6)cc(F)c4C3)sc2n1 (single isomer, unassigned) [Example 1-29] |  | USP28 A-1(b) IC50 range ([1]; Ub-Rh110 assay): +++ (0.05-0.2 μM)
CN[C@@H]1CCN(c2ccc3c(c2)CC[C@H](NC(=O)c2sc4nc(C)cnc4c2N)C3)C1 (single isomer, unassigned) [Example 11-27] |  | USP28 A-1(b) IC50 range ([1]; Ubiquitin-Rhodamine 110 assay): ++ (0.2-2 μM)
Cc1ccc2c(N)c(C(=O)N[C@@H]3CCc4cc(N5CCNCC5)ccc4C3)sc2n1 (single isomer, unassigned) [Example 11-22] |  | USP28 A-1(b) IC50 range ([1]; Ubiquitin-Rhodamine 110 assay): ++ (0.2-2 μM)
Cc1ccc2c(N)c(C(=O)NC3COc4cc(N5CCNCC5)ccc4C3C)sc2n1 (single isomer, unassigned) [Example 11-17] |  | IC50 [2]: > 2000 nM
COCCO[C@H]1CN(c2ccc3c(n2)CC[C@H](NC(=O)c2sc4nc(C)ccc4c2N)C3)C[C@@H]1N (single isomer, unassigned) [Example 28-1] | 200 to 2000 | 
COC[C@]1(N)CCN(c2ccc3c(n2)CC[C@H](NC(=O)c2sc4nc(C)ccc4c2N)C3)C1 [Example 389, 3-amino-N-[(6S)-2-[(3S)-3-amino-3-(methoxymethyl)pyrrolidin-1-yl]-5,6,7,8-tetrahydroquinolin-6-yl]-6-methylthieno[2,3-b]pyridine-2-carboxamide] | 50 to 200 | 
CO[C@H]1CN(c2ncc3c(n2)CC[C@H](NC(=O)c2sc4nc(C)cc(C)c4c2N)C3)C[C@@H]1N [Example 273, 3-amino-N-[(6S)-2-[(3S,4S)-3-amino-4-methoxypyrrolidin-1-yl]-5,6,7,8-tetrahydroquinazolin-6-yl]-4,6-dimethylthieno[2,3-b]pyridine-2-carboxamide] | > 2000 | 
CO[C@@]12CCN[C@H]1CN(c1ccc3c(n1)CC[C@H](NC(=O)c1sc4nc(C)ccc4c1N)C3)C2 [Example 434, N-[(6S)-2-[(3aR,6aS)-3a-methoxy-octahydropyrrolo[2,3-c]pyrrol-5-yl]-5,6,7,8-tetrahydroquinolin-6-yl]-3-amino-6-methylthieno[2,3-b]pyridine-2-carboxamide] | 50 to 200 | 
